Source: patent US20120196824A1, “THERAPEUTIC AGENT FOR CEREBRAL INFARCTION” (MITSUBISHI TANABE PHARMA CORPORATION, priority 2009, published 2012)
Counter-ions that a name gives are not always drawn.

What follows are molecules tested against T1, Human-recombinant-S-Adenosyl-L-Homocysteine Hydrolase (Homo sapiens, UniProt P23526) (assay: Measurement of enzyme inhibitory activity (hydrolysis of S-Adenosyl-L-Homocysteine, HPLC)). Settings: S-Adenosyl-L-Homocysteine 10 μM, pH 7.2, 37° C., 15 min.
T1 construct: purchased Diazyme Laboratories
Type: biochemical
Procedure: The enzyme inhibitory activity of the compounds of the Examples was measured using the hydrolysis activity of S-Adenosyl-L-Homocysteine as an index. The measurement method was modification of the method of Henry H. Richards et al. (J. Biol. Chem. 253, 4476-4480, 1978). That is, S-Adenosyl-L-Homocysteine (10 μM) and Adenosine Deaminase (Roche) (4 units) were added to 50 mM phosphate buffer (pH 7.2, containing 1 mM EDTA) with the total amount being 200 μl, and to the solution were added a test substance and then Human-recombinant-S-Adenosyl-L-Homocysteine Hydrolase (50 ng, Diazyme Laboratories) to start the reaction, and the mixture was incubated at 37° C. for 15 min. The reaction was quenched by the addition of 1N aqueous perchloric solution (20 μl), and the mixture was centrifuged under the conditions of 10000 rpm, 5 min, 4° C. The supernatant was collected, and the amount of S-Adenosyl-L-Homocysteine after the reaction was quantified by HPLC. The column used was a reversed-phase column. The detailed conditions of HPLC were as follows.
column used: Wakopak^R HandyODS 150*4.6 mm (Wako Pure Chemical Industries, Ltd.) elution condition: 1.0 ml/min elution solvent: 0.1M acetate buffer (pH 4.0) containing 10 mM 1-heptanesulfonic acid containing 4% acetonitrile wavelength: 258 nm (UV) The inhibitory rate was determined with the amount of decrease in S-Adenosyl-L-Homocysteine before and after the reaction without using the test substance as 100%.
Inhibitory rate (%)={(amount of decrease of S-Adenosyl-L-Homocysteine in the presence of test substance)/(amount of decrease of S-Adenosyl-L-Homocysteine in the absence of test substance)}×100

T1 sequence (P23526 whole entry): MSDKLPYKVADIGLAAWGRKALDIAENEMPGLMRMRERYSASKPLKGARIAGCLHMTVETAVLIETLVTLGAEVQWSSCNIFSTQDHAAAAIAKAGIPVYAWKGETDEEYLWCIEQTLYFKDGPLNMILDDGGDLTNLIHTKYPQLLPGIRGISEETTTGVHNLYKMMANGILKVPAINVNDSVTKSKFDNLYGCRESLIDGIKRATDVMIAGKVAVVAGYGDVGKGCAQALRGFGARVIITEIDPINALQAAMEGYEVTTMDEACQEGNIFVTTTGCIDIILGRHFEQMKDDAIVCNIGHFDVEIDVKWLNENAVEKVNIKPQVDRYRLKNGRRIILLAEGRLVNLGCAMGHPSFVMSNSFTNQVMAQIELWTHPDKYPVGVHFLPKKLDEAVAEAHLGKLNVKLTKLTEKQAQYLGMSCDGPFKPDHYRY

Compound	IC50 [nM]
CCNCCNC(=O)CN(CC(=O)N(C)N1Cc2ccccc2C1)c1cc2cn(CC)nc2cc1C [Example 247, N^2-{2-[1,3-dihydro-2H-isoindol-2-yl(methyl)amino]-2-oxoethyl}-N^2-(2-ethyl-6-methyl-2H-indazol-5-yl)-N^1-[2-(ethylamino)ethyl]glycinamide hydrochloride]	15
CCNCCNC(=O)CN(CC(=O)N(C)N1Cc2ccc(F)cc2C1)c1cc2c(cc1C)c(CC)nn2CC(F)F [Example 279, N^2-[1-(2,2-difluoroethyl)-3-ethyl-5-methyl-1H-indazol-6-yl]-N^2-{2-[(5-fluoro-1,3-dihydro-2H-isoindol-2-yl)(methyl)amino]-2-oxoethyl}-N^1-[2-(ethylamino)ethyl]glycinamide hydrochloride]	66
Cc1cc2onc(C)c2cc1N(CC(=O)NCCNC(C)C)CC(=O)N(C)N1Cc2ccccc2C1 [Example 180, N^2-{2-[1,3-dihydro-2H-isoindol-2-yl(methyl)amino]-2-oxoethyl}-N^2-(3,6-dimethyl-1,2-benzisoxazol-5-yl)-N^1-[2-(isopropylamino)ethyl]glycinamide]	15
CCNCCNC(=O)CN(CC(=O)N(C)N1Cc2ccccc2C1)c1cc(-c2noc(C(F)(F)F)n2)ccc1C [Example 287, N^2-{2-[1,3-dihydro-2H-isoindol-2-yl(methyl)amino]-2-oxoethyl}-N^2-{2-methyl-5-[5-(trifluoromethyl)-1,2,4-oxadiazol-3-yl]phenyl}-N^1-[2-(ethylamino)ethyl]glycinamide dihydrochloride]	58
CCNCCNC(=O)CN(CC(=O)N(C)N1Cc2ccccc2C1)c1cc2oc(=O)n(C)c2cc1C [Example 193, N^2-{2-[1,3-dihydro-2H-isoindol-2-yl(methyl)amino]-2-oxoethyl}-N^2-(3,5-dimethyl-1,3-benzoxazol-2(3H)-on-6-yl)-N^1-[2-(ethylamino)ethyl]glycinamide]	29
CC(=O)c1ccc(C)c(N(CC(=O)NCCNC(C)C)CC(=O)N(C)N2Cc3ccccc3C2)c1 [Example 56, N^2-(5-acetyl-2-methylphenyl)-N^2-{2-[1,3-dihydro-2H-isoindol-2-yl(methyl)amino]-2-oxoethyl}-N^1-[2-(isopropylamino)ethyl]glycinamide]	52
CCNCCNC(=O)CN(CC(=O)N(C)N1Cc2ccccc2C1)c1cc2c(cc1C)CN(CC)C2=O [Example 284, N^2-{2-[1,3-dihydro-2H-isoindol-2-yl(methyl)amino]-2-oxoethyl}-N^2-(2-ethyl-6-methyl-3-oxo-2,3-dihydro-1H-isoindol-5-yl)-N^1-[2-(ethylamino)ethyl]glycinamide dihydrochloride]	33
CCNCCNC(=O)CN(CC(=O)N(C)N1Cc2cccc(F)c2C1)c1cc2c(cc1C)CCC2=O [Example 216, N^2-{2-[(4-fluoro-1,3-dihydro-2H-isoindol-2-yl)(methyl)amino]-2-oxoethyl}-N^2-(6-methyl-3-oxo-2,3-dihydro-1H-inden-5-yl)-N^1-[2-(ethylamino)ethyl]glycinamide]	33
CCNCCNC(=O)CN(CC(=O)N(C)N1Cc2ccccc2C1)c1ccc(-n2cc(C(N)=O)cn2)cc1C [Example 303, N^2-{4-[4-(aminocarbonyl)-1H-pyrazol-1-yl]-2-methylphenyl}-N^2-{2-[1,3-dihydro-2H-isoindol-2-yl(methyl)amino]-2-oxoethyl}-N^1-[2-(ethylamino)ethyl]glycinamide dihydrochloride]	41
CCNCCNC(=O)CN(CC(=O)N(C)N1Cc2ccc(F)cc2C1)c1cc(-c2nc(C)no2)ccc1C [Example 87, N^2-{2-[(5-fluoro-1,3-dihydro-2H-isoindol-2-yl)(methyl)amino]-2-oxoethyl}-N^2-[2-methyl-5-(3-methyl-1,2,4-oxadiazol-5-yl)phenyl]-N^1-[2-(ethylamino)ethyl]glycinamide]	18
CCNCCNC(=O)CN(CC(=O)N(C)N1Cc2ccc(F)cc2C1)c1cc2c(cnn2C)cc1C [Example 259, N^2-(1,5-dimethyl-1H-indazol-6-yl)-N^2-{2-[(5-fluoro-1,3-dihydro-2H-isoindol-2-yl)(methyl)amino]-2-oxoethyl}-N^1-[2-(ethylamino)ethyl]glycinamide hydrochloride]	30
CCNCCNC(=O)CN(CC(=O)N(C)N1Cc2ccccc2C1)c1ccc(C(C)=O)cc1C [Example 210, N^2-(4-acetyl-2-methylphenyl)-N^2-{2-[1,3-dihydro-2H-isoindol-2-yl(methyl)amino]-2-oxoethyl}-N^1-[2-(ethylamino)ethyl]glycinamide]	34
Cc1cc2onc(C)c2cc1N(CC(=O)NC[C@@H]1CCCN1)CC(=O)N(C)N1Cc2ccccc2C1 [Example 328, N^2-{2-[1,3-dihydro-2H-isoindol-2-yl(methyl)amino]-2-oxoethyl}-N^2-(3,6-dimethyl-1,2-benzisoxazol-5-yl)-N^1-[(2S)-pyrrolidin-2-ylmethyl]glycinamide dihydrochloride]	150
CCNCCNC(=O)CN(CC(=O)N(C)N1Cc2ccc(F)cc2C1)c1ccc(-c2nc(C)no2)cc1C [Example 231, N^2-{2-[(5-fluoro-1,3-dihydro-2H-isoindol-2-yl)(methyl)amino]-2-oxoethyl}-N^2-[2-methyl-4-(3-methyl-1,2,4-oxadiazol-5-yl)phenyl]-N^1-[2-(ethylamino)ethyl]glycinamide]	46
CCNCCNC(=O)CN(CC(=O)N(C)N1Cc2ccccc2C1)c1cc(C(C)=O)ccc1C [Example 57, N^2-(5-acetyl-2-methylphenyl)-N^2-{2-[1,3-dihydro-2H-isoindol-2-yl(methyl)amino]-2-oxoethyl}-N^1-[2-(ethylamino)ethyl]glycinamide]	42
CCNCCNC(=O)CN(CC(=O)N(C)N1Cc2ccc(F)cc2C1)c1ccc(C(C)=O)cc1C [Example 211, N^2-(4-acetyl-2-methylphenyl)-N^2-{2-[(5-fluoro-1,3-dihydro-2H-isoindol-2-yl)(methyl)amino]-2-oxoethyl}-N^1-[2-(ethylamino)ethyl]glycinamide]	51
CCNCCNC(=O)CN(CC(=O)N(C)N1Cc2cccc(F)c2C1)c1ccc(-c2noc(C)n2)cc1C [Example 205, N^2-{2-[(4-fluoro-1,3-dihydro-2H-isoindol-2-yl)(methyl)amino]-2-oxoethyl}-N^2-[2-methyl-4-(5-methyl-1,2,4-oxadiazol-3-yl)phenyl]-N^1-[2-(ethylamino)ethyl]glycinamide]	48
CCNCCNC(=O)CN(CC(=O)N(C)N1Cc2ccccc2C1)c1ccc(-c2noc(C(F)(F)F)n2)cc1C [Example 289, N^2-{2-[1,3-dihydro-2H-isoindol-2-yl(methyl)amino]-2-oxoethyl}-N^2-{2-methyl-4-[5-(trifluoromethyl)-1,2,4-oxadiazol-3-yl]phenyl}-N^1-[2-(ethylamino)ethyl]glycinamide dihydrochloride]	76
Cc1nc(-c2ccc(C)c(N(CC(=O)NCCNC(C)C)CC(=O)N(C)N3Cc4ccccc4C3)c2)no1 [Example 15, N^2-{2-[1,3-dihydro-2H-isoindol-2-yl(methyl)amino]-2-oxoethyl}-N^2-[2-methyl-5-(5-methyl-1,2,4-oxadiazol-3-yl)phenyl]-N^1-[2-(isopropylamino)ethyl]glycinamide]	17
